Experimental findings from patent publication US11236129B2, “IL-17A binding peptides and medical uses thereof” (Dompe' Farmaceutici S.P.A., priority 2018, dated 2022) are described below.

pIC50: −log10 of the molar value. Like-named read-outs stand apart in the source and are kept apart here. Residues, ends and D or L forms follow the SMILES beside them.

The target in the experiment is IL-17RA/IL17RC dimerization induced by IL-17A (Homo sapiens, UniProt Q16552). In words: IL-17RA/IL17RC dimerization assay in response to IL-17A (PathHunter Cytokine Receptor Assay). The experiment is classed as cell-based. As for the experimental part: The peptides of Table 7 were tested for their ability to inhibit the binding of IL-17A to its receptor and the subsequent interaction of IL-17RA and IL17RC.
Chain of IL-17RA/IL17RC dimerization induced by IL-17A (Q16552 24-155): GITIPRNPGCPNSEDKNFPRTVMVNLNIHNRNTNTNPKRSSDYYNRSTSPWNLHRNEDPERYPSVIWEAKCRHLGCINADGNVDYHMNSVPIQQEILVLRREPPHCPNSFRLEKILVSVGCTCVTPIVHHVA
Interleukin receptor RA and RC dimerization assay (DiscoverX) was used to measure the interaction of the receptor chains IL-17RA and IL17RC upon activation by IL-17A in the absence or presence of the peptides of Table 7.
In the PathHunter® Cytokine Receptor Assay, one cytokine receptor chain is tagged with a small peptide epitope ProLink (PK) and the other chain is tagged with Enzyme Acceptor (EA). Ligand binding induces dimerization of the two receptors, facilitating complementation of PK and EA fragments. This interaction generates an active unit of b-galactosidase, which is detected using a chemiluminescent substrate. PathHunter cell lines were expanded from freezer stocks according to standard procedures. Cells were seeded in a total volume of 20 μL into white walled, 384-well microplates and incubated for the appropriate time prior to testing. For agonist activity inhibition, cells were incubated with sample to induce response. Intermediate dilution of sample stocks was performed to generate 5× sample in assay buffer. 5 μL of 5× sample was added to cells and incubated at 37° C. or room temperature for 60 minutes. Vehicle concentration was 1%. 5 μL of 6×EC80 agonist (IL-17A) in assay buffer was added to the cells and incubated at 37° C. for 6 to 16 hours depending on the assay. 1. […] For some assays, activity was detected using a high sensitivity detection reagent (PathHunter Flash Kit) to improve assay performance. In these assays, an equal volume of detection reagent (25 or 30 uL) was added to the wells, followed by a one hour incubation at room temperature. Microplates were read following signal generation with a PerkinElmer Envision™ instrument for chemiluminescent signal detection. Compound activity was analyzed using CBIS data analysis suite (ChemInnovation, CA). % Inhibition=100%×(1−(mean RLU of test sample−mean RLU of vehicle control)/(mean RLU of EC80 control−mean RLU of vehicle control)).

[1] abbreviates: IL-17A at EC80, read-out: IC50 in IL-17RA/IL7RC dimerization assay.

As to `CC[C@H](C)[C@H](NC(C)=O)C(=O)N[C@@H](Cc1c[nH]cn1)C(=O)N[C@H](C(=O)N[C@H](C(=O)N[C@H](C(=O)N1CCC[C@H]1C(=O)N[C@@H](C)C(=O)N[C@@H](CC(=O)O)C(=O)N[C@@H](CC(C)C)C(=O)N[C@@H](Cc1c[nH]c2ccccc12)C(=O)N[C@@H](CC(=O)O)C(=O)N[C@@H](Cc1c[nH]c2ccccc12)C(=O)N[C@H](C(=O)N[C@@H](CC(N)=O)C(=O)N[C@@H](CC(=O)O)C(N)=O)[C@@H](C)CC)[C@@H](C)CC)[C@@H](C)O)C(C)C` [SEQ ID NO: 223] (Ac-IHVTIPADLWDWIND-NH2), under setting [1], the pIC50 was above 5.00. On to `CC[C@H](C)[C@H](NC(C)=O)C(=O)N[C@@H](CCC(N)=O)C(=O)N[C@H](C(=O)N[C@H](C(=O)N[C@H](C(=O)N1CCC[C@H]1C(=O)N[C@@H](C)C(=O)N[C@@H](CC(=O)O)C(=O)N[C@@H](CC(C)C)C(=O)N[C@@H](Cc1c[nH]c2ccccc12)C(=O)N[C@@H](CC(=O)O)C(=O)N[C@@H](Cc1c[nH]c2ccccc12)C(=O)N[C@H](C(=O)N[C@@H](CC(N)=O)C(=O)N[C@@H](CCCCN)C(N)=O)[C@@H](C)CC)[C@@H](C)CC)[C@@H](C)O)C(C)C` [SEQ ID NO: 165] (Ac-IQVTIPADLWDWINK-NH2), for which the pIC50 under setting [1] is above 5.00. On to `CC[C@H](C)[C@H](NC(C)=O)C(=O)N[C@@H](Cc1c[nH]cn1)C(=O)N[C@H](C(=O)N[C@H](C(=O)N[C@H](C(=O)N1CCC[C@H]1C(=O)N[C@@H](C)C(=O)N[C@@H](CC(=O)O)C(=O)N[C@H](C(=O)N[C@@H](Cc1c[nH]c2ccccc12)C(=O)N[C@@H](CC(=O)O)C(=O)N[C@@H](Cc1c[nH]c2ccccc12)C(=O)N[C@H](C(=O)N[C@@H](CC(N)=O)C(=O)N[C@@H](CCCCN)C(N)=O)[C@@H](C)CC)[C@@H](C)CC)[C@@H](C)CC)[C@@H](C)O)C(C)C` [SEQ ID NO: 205] (Ac-IHVTIPADIWDWINK-NH2), for which the pIC50 is above 5.00. On to `CC[C@H](C)[C@H](NC(=O)[C@@H](NC(=O)[C@H](Cc1ccccc1)NC(=O)[C@H](Cc1c[nH]cn1)NC(=O)[C@@H](NC(C)=O)C(C)C)[C@@H](C)O)C(=O)N1CCC[C@H]1C(=O)N[C@@H](CCC(N)=O)C(=O)N[C@@H](CC(=O)O)C(=O)N[C@@H](CC(C)C)C(=O)N[C@@H](Cc1ccc(O)cc1)C(=O)N[C@@H](CC(N)=O)C(=O)N[C@@H](Cc1c[nH]c2ccccc12)C(=O)N[C@@H](CCCNC(=N)N)C(=O)N[C@@H](CCCNC(=N)N)C(N)=O` [SEQ ID NO: 151] (Ac-VHFTIPQDLYNWRR-NH2), for which, under setting [1], the pIC50 was above 6.30. For `CC[C@H](C)[C@H](NC(C)=O)C(=O)N[C@@H](Cc1c[nH]cn1)C(=O)N[C@H](C(=O)N[C@H](C(=O)N[C@H](C(=O)N1CCC[C@H]1C(=O)N[C@@H](C)C(=O)N[C@@H](CC(=O)O)C(=O)N[C@@H](CC(C)C)C(=O)N[C@@H](Cc1c[nH]c2ccccc12)C(=O)N[C@@H](CC(=O)O)C(=O)N[C@@H](Cc1c[nH]cn1)C(=O)N[C@H](C(=O)N[C@@H](CC(N)=O)C(=O)N[C@@H](CCCCN)C(N)=O)[C@@H](C)CC)[C@@H](C)CC)[C@@H](C)O)C(C)C` [SEQ ID NO: 209] (Ac-IHVTIPADLWDHINK-NH2), the pIC50 under setting [1] is above 5.00. On the same count and under the same terms, to `CC[C@H](C)[C@H](NC(=O)[C@@H](NC(=O)[C@@H](NC(=O)[C@H](Cc1c[nH]cn1)NC(=O)[C@@H](NC(C)=O)C(C)C)C(C)C)[C@@H](C)O)C(=O)N1CCC[C@H]1C(=O)N[C@@H](C)C(=O)N[C@@H](CC(=O)O)C(=O)N[C@@H](CC(C)C)C(=O)N[C@@H](Cc1ccc(O)cc1)C(=O)N[C@@H](CC(N)=O)C(=O)N[C@@H](Cc1ccccc1)C(=O)N[C@@H](Cc1ccccc1)C(=O)N[C@@H](CCCNC(=N)N)C(=O)N[C@@H](CCCNC(=N)N)C(N)=O` [SEQ ID NO: 149] (Ac-VHVTIPADLYNFFRR-NH2) belongs above 6.30; to `CC(=O)N[C@H](C(=O)N[C@@H](Cc1c[nH]cn1)C(=O)N[C@H](C(=O)N[C@H](C(=O)N[C@H](C(=O)N1CCC[C@H]1C(=O)N[C@@H](CCC(N)=O)C(=O)N[C@@H](CCC(=O)O)C(=O)N[C@@H](CC(C)C)C(=O)N[C@@H](Cc1c[nH]c2ccccc12)C(=O)N[C@@H](CCC(=O)O)C(=O)N[C@@H](Cc1c[nH]c2ccccc12)C(=O)N[C@H](C(=O)N[C@@H](CCCNC(=N)N)C(=O)N[C@@H](CCCNC(=N)N)C(N)=O)C(C)C)C(C)C)[C@@H](C)O)C(C)C)C(C)C` [SEQ ID NO: 224] (Ac-VHVTVPQELWEWVRR-NH2), above 5.00.

`CC[C@H](C)[C@H](NC(=O)[C@H](Cc1c[nH]c2ccccc12)NC(=O)[C@H](CC(=O)O)NC(=O)[C@H](Cc1c[nH]c2ccccc12)NC(=O)[C@H](CC(C)C)NC(=O)[C@H](CC(=O)O)NC(=O)[C@H](C)NC(=O)[C@@H]1CCCN1C(=O)[C@@H](NC(=O)[C@@H](NC(=O)[C@@H](NC(=O)[C@H](Cc1c[nH]cn1)NC(=O)[C@@H]1CCCN1C(C)=O)C(C)C)[C@@H](C)O)[C@@H](C)CC)C(=O)N[C@@H](CC(N)=O)C(=O)N[C@@H](CCCCN)C(N)=O` [SEQ ID NO: 161] (Ac-PHVTIPADLWDWINK-NH2): the pIC50 under setting [1] is above 5.00.

On to `CC[C@H](C)[C@H](NC(C)=O)C(=O)N[C@@H](Cc1c[nH]cn1)C(=O)N[C@H](C(=O)N[C@H](C(=O)N[C@@H](Cc1ccccc1)C(=O)N1CCC[C@H]1C(=O)N[C@@H](C)C(=O)N[C@@H](CC(=O)O)C(=O)N[C@@H](CC(C)C)C(=O)N[C@@H](Cc1c[nH]c2ccccc12)C(=O)N[C@@H](CC(=O)O)C(=O)N[C@@H](Cc1c[nH]c2ccccc12)C(=O)N[C@H](C(=O)N[C@@H](CC(N)=O)C(=O)N[C@@H](CCCCN)C(N)=O)[C@@H](C)CC)[C@@H](C)O)C(C)C` [SEQ ID NO: 184] (Ac-IHVTFPADLWDWINK-NH2), for which the pIC50 under setting [1] was above 5.00. On the same count and under the same terms, as for `CC[C@H](C)[C@H](NC(C)=O)C(=O)N[C@@H](Cc1c[nH]cn1)C(=O)N[C@H](C(=O)N[C@H](C(=O)N[C@H](C(=O)N1CCC[C@H]1C(=O)N[C@@H](C)C(=O)N[C@@H](CC(=O)O)C(=O)N1CCC[C@H]1C(=O)N[C@@H](Cc1c[nH]c2ccccc12)C(=O)N[C@@H](CC(=O)O)C(=O)N[C@@H](Cc1c[nH]c2ccccc12)C(=O)N[C@H](C(=O)N[C@@H](CC(N)=O)C(=O)N[C@@H](CCCCN)C(N)=O)[C@@H](C)CC)[C@@H](C)CC)[C@@H](C)O)C(C)C` [SEQ ID NO: 203] (Ac-IHVTIPADPWDWINK-NH2), the figure is above 5.00. As for `CC[C@H](C)[C@H](NC(=O)[C@@H](NC(=O)[C@@H](NC(=O)[C@H](Cc1c[nH]cn1)NC(=O)[C@@H](NC(=O)CNC(=O)[C@H](C)NC(=O)CNC(=O)[C@@H]1CCCN1C(=O)[C@@H](NC(=O)CNC(=O)[C@H](C)NC(=O)CNC(=O)[C@@H]1CCCN1C(=O)[C@@H](NC(C)=O)C(C)C)C(C)C)[C@@H](C)CC)C(C)C)[C@@H](C)O)C(N)=O` [SEQ ID NO: 156] (Ac-VPGAGVPGAGIHVTI-NH2), the pIC50 under setting [1] was above 6.30.

Turning to `CC[C@H](C)[C@H](NC(=O)[C@H](CCC(=O)O)NC(=O)[C@H](CC(C)C)NC(=O)[C@@H]1CCCN1C(=O)[C@@H](NC(=O)[C@H](CO)NC(=O)[C@@H](NC(=O)[C@H](CCCCN)NC(=O)[C@@H](NC(C)=O)C(C)C)[C@@H](C)CC)C(C)C)C(=O)N[C@@H](Cc1ccccc1)C(=O)N[C@@H](CCC(=O)O)C(=O)N[C@@H](Cc1c[nH]c2ccccc12)C(=O)N[C@@H](CC(C)C)C(=O)N[C@@H](CCC(N)=O)C(=O)N[C@@H](Cc1c[nH]cn1)C(N)=O` [SEQ ID NO: 254] (Ac-VKISVPLEIFEWLQH-NH2), the pIC50 under setting [1] was above 5.00.
